Experiments:
mouse 11β-HSD1 = mouse 11β-HSD1 (Mus musculus, UniProt P50172); experiment: scintillation proximity assay (SPA), microsomes of HEK-293 cells transfected with mouse 11β-HSD1; settings: for Mouse SI (selectivity index): SI = IC50(HSD2)/IC50(HSD1); for inhibition at 1 µM: read-out: Inhibitory ratio m-HSD1, at 1.0 μM, averages of three determinations
Protocol: (§1) With diverse tanshinones in hand, inhibition of human and mouse 11β-HSD1 enzymatic potency was measured by scintillation proximity assay (SPA) using microsomes containing 11β-HSD1 [46, 47]. Results are reported as the average of two or three independent experiments at each concentration.
(§2) The SPA was used to screen for inhibitors of 11β-HSDs [48], with the microsome fractions prepared from the HEK-293 cells stably transfected with either human or mouse 11β-HSD1 or 11β-HSD2 as the enzyme source. […] Reactions were initiated by the addition of 11β-HSD1 or 11β-HSD2, enzyme. […] The plates were incubated under plastic film on an orbital shaker for 120 min at room temperature before counting. The amount of [^3H]-cortisol generated in 11β-HSD1 enzyme reaction or remaining from the 11β-HSD2 enzyme reaction was captured by the beads and determined in a microplate liquid scintillation counter. The % inhibition was calculated relative to a non-inhibited control. Data were obtained from two or three independent experiments. IC50 values were calculated from concentration–response curves by a non-linear regression analysis using Prism Version 6.

human 11β-HSD1 = human 11β-HSD1 (Homo sapiens, UniProt P28845); experiment: scintillation proximity assay (SPA), microsomes of HEK-293 cells transfected with human 11β-HSD1; settings: for inhibition at 1 µM: read-out: Inhibitory ratio h-HSD1, at 1.0 μM, averages of three determinations; for Human SI (selectivity index): Table 3, SI = IC50(HSD2)/IC50(HSD1)
Chain of human 11β-HSD1 (P28845 whole entry): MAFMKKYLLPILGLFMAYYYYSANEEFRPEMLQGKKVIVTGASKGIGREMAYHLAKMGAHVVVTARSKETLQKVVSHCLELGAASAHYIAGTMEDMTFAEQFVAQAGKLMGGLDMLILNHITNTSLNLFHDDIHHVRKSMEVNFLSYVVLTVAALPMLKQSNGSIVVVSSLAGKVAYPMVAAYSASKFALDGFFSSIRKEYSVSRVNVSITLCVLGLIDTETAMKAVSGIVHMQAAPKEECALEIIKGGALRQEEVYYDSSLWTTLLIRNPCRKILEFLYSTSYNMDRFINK
Protocol: as §1, §2

mouse 11β-HSD2 = biological target: T1, mouse 11β-HSD2 (Mus musculus, UniProt P51661); experiment: scintillation proximity assay (SPA), microsomes of HEK-293 cells transfected with mouse 11β-HSD2
T1 sequence (P51661 1-386): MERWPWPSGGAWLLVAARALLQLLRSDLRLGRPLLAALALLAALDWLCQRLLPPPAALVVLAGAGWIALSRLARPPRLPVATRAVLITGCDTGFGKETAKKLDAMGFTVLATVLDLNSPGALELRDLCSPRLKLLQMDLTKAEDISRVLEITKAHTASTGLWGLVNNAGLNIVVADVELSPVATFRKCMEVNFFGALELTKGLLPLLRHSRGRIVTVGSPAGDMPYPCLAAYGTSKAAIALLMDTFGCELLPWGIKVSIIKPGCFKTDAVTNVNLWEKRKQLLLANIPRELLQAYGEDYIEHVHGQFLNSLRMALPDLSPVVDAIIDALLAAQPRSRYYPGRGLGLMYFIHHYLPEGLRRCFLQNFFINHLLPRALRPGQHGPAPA
Protocol: as §1, §2

human 11β-HSD2 = biological target: T2, human 11β-HSD2 (Homo sapiens, UniProt P80365); experiment: scintillation proximity assay (SPA), microsomes of HEK-293 cells transfected with human 11β-HSD2
T2 sequence (P80365 1-405): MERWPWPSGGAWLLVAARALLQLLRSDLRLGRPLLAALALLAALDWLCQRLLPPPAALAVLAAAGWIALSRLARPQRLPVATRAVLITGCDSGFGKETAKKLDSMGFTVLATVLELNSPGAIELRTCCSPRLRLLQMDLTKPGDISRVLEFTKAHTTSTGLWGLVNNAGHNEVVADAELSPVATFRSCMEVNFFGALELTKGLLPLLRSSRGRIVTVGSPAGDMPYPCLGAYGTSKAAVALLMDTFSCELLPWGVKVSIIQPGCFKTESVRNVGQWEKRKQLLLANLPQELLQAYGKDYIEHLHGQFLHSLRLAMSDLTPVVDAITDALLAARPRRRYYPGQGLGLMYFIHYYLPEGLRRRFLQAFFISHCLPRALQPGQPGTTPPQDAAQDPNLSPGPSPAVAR
Protocol: as §1, §2

[1] = biological target: T3, 11β-HSD1 in 3T3-L1 adipocytes (Mus musculus, UniProt P50172); experiment: 11β-HSD1 activity assay in 3T3-L1 adipocytes; assay type: cell-based
T3 construct: endogenous in cells; host or cells: 3T3-L1 adipocytes
T3 sequence (P50172 whole entry): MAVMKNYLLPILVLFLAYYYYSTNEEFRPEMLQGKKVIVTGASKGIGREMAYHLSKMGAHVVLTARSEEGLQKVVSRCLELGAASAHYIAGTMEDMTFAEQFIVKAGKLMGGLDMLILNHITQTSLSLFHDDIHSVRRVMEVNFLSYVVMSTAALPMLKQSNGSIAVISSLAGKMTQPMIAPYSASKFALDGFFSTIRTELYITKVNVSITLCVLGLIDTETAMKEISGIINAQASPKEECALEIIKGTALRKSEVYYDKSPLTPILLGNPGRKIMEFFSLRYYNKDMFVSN
Protocol: 11β-HSD1 enzyme inhibition in adipose tissue is believed to be important for achieving efficacy in vivo [11, 12]. Derivatives with potent enzymatic potency and excellent selectivity profiles (13, 14, 17, 28a, 28b and 30) were also evaluated their 11β-HSD1 inhibition in 3T3-L1 adipocyte.
The reductase activity of 11β-HSD1 in intact 3T3-L1 adipocytes was determined by measuring the rate of conversion of cortisone to cortisol. To explore the effect of compounds on 11β-HSD1 reductase activity, 3T3-L1 adipocytes were incubated for 1 h at 37 °C in serum-free DMEM containing 6.25 nmol/L [1,2-(N)^3H]-cortisone and different concentrations of compounds, according to experimental design. 0.1% DMSO was set as the vehicle control and MK544 was set as the positive control. At the end of the incubation, 80 μL of medium was pipetted into a transparent bottom 96-well plate, and 35 μL of SuperBlock Blocking Buffer containing 10 g/L of protein A-coated yttrium silicate beads and 3 mg/L of anti-cortisol antibodies was added. The mixtures were shaken in the dark for 2 h and then used for liquid scintillation readings. The inhibition effect was calculated by the following equation: Inhibition%=Data(compound)-Data(DMSO Vehicle)/Data(MK54410μM)-Data(DMSO Vehicle)×100%.

Chain of mouse 11β-HSD1 (P50172 whole entry): as above

Compound	IC50 (mouse 11β-HSD1) [µM]	Mouse SI (selectivity index) (mouse 11β-HSD1; Table 3)	inhibition at 1 µM (mouse 11β-HSD1) [%]	inhibition at 1 µM (human 11β-HSD1) [%]	IC50 (mouse 11β-HSD2) [µM]	IC50 (human 11β-HSD2) [µM]	Mouse SI (selectivity index) (mouse 11β-HSD1; Table 1)	IC50 (human 11β-HSD1) [µM]	Human SI (selectivity index) (human 11β-HSD1)	IC50 ([1]; 1 h incubation, averages of three determinations, read-out: IC50, cellular assay on 3T3-L1 adipocyte against 11β-HSD1) [µM]	Max effect ([1]; inhibition relative to MK544 10 μM) [%]
Cc1coc2c1C(=O)C(=O)c1c-2ccc2c1[C@H](O)[C@@H](O)CC2(C)C (racemic) [Compound 18a]	0.138 ± 0.0108	> 724.1	89 ± 3.5	31.1 ± 0.2	> 100	–	–	–	–	–	–
C[C@H]1COC2=C1C(=O)C(=O)c1c2ccc2c1CCCC2(C)C [Compound 2, cryptotanshinone]	0.0418 ± 0.0087	–	89.9 ± 3.7	91.3 ± 0.1	> 1000	12.1	> 23,923	0.0731 ± 0.0313	–	–	–
Cc1coc2c1c(=O)oc1c3ccccc3ccc21 [Compound 9]	–	–	8.4	14 ± 1.3	–	–	–	–	–	–	–
Cc1coc2c1C(=O)C(=O)c1ccccc1-2 [Compound 10]	0.0665 ± 0.0056	> 150.3	89.9 ± 0.9	87.6 ± 2.2	> 10	> 10	–	0.121	> 82.5	–	–
Cc1coc2c1C(=O)C(=O)C=C2 [Compound 11]	–	–	33 ± 2.3	9.9 ± 1.1	–	–	–	–	–	–	–
Cc1coc2ccc(O)cc12 [Compound 12]	–	–	12.4 ± 1.4	10 ± 2.3	–	–	–	–	–	–	–
Cc1coc2c1C(=O)C(=O)c1c-2ccc2c1CCC(O)C2(C)C (stereo not drawn) [Compound 15]	0.0729 ± 0.0093	> 1371.7	85.3 ± 0.2	40.6 ± 1.5	> 100	–	–	–	–	–	–
CC(=O)OC1CCc2c(ccc3c2C(=O)C(=O)c2c(C)coc2-3)C1(C)C (stereo not drawn) [Compound 16]	0.0101 ± 0.0008	> 9900.9	89.3 ± 1.5	50.3 ± 2.7	> 100	7.3 ± 2.2	–	0.89 ± 0.1	8.2	–	–
Cc1coc2c1C(=O)C(=O)c1c-2ccc2c1C(=O)C(O)CC2(C)C (stereo not drawn) [Compound 18b]	–	–	49.4 ± 1.6	43.2 ± 1.7	–	–	–	–	–	–	–
Cc1coc2c1C(=O)C(=O)c1c-2ccc2c1C[C@@H](O)CC2(C)C [Compound 19]	0.0484 ± 0.0066	> 206.6	86.7 ± 2.1	63.9 ± 2.7	> 10	2.7 ± 0.5	–	0.32	8.3	–	–
Cc1coc2c1C(=O)C(=O)c1c-2ccc2c1C(=O)C(O)=CC2(C)C [Compound 20]	0.0966 ± 0.0165	> 103.6	81.8 ± 1.5	38.5 ± 2.2	> 10	–	–	–	–	–	–
CC(=O)Oc1c2c(c3ccc4c(c3c1OC(C)=O)CCCC4(C)C)OC[C@@H]2C [Compound 21]	–	–	28.6 ± 0.3	5.1 ± 1.8	–	–	–	–	–	–	–
Cc1c[nH]c2c1C(=O)C(=O)c1c-2ccc2c1CCCC2(C)C [Compound 24]	–	–	56 ± 2.2	33.6 ± 0.8	–	–	–	–	–	–	–
C[C@@H](CO)C1=C(N)c2ccc3c(c2C(=O)C1=O)CCCC3(C)C [Compound 25]	0.095 ± 0.0178	> 105.3	85.1 ± 0.6	35.5 ± 2.8	> 10	–	–	–	–	–	–
Cc1coc2c3ccc4c(c3c3[nH]c(-c5ccc(O)cc5)nc3c12)CCCC4(C)C [Compound 26]	–	–	19.2 ± 5.3	12.8 ± 0.8	–	–	–	–	–	–	–
Cc1c(-c2ccccc2)oc2c1C(=O)C(=O)c1c-2ccc2c1CCCC2(C)C [Compound 27a]	–	–	25.9 ± 0.3	33.9 ± 1.8	–	–	–	–	–	–	–

Compound	IC50 (mouse 11β-HSD1) [µM]	Mouse SI (selectivity index) (mouse 11β-HSD1; Table 3)	inhibition at 1 µM (mouse 11β-HSD1) [%]	inhibition at 1 µM (human 11β-HSD1) [%]	IC50 (mouse 11β-HSD2) [µM]	IC50 (human 11β-HSD2) [µM]	Mouse SI (selectivity index) (mouse 11β-HSD1; Table 1)	IC50 (human 11β-HSD1) [µM]	Human SI (selectivity index) (human 11β-HSD1)	IC50 ([1]; 1 h incubation, averages of three determinations, read-out: IC50, cellular assay on 3T3-L1 adipocyte against 11β-HSD1) [µM]	Max effect ([1]; inhibition relative to MK544 10 μM) [%]
Cc1c(-c2ccc(F)cc2)oc2c1C(=O)C(=O)c1c-2ccc2c1CCCC2(C)C [Compound 27b]	–	–	5.6 ± 0.5	3.8 ± 1.5	–	–	–	–	–	–	–
Cc1c(-c2ccncc2)oc2c1C(=O)C(=O)c1c-2ccc2c1CCCC2(C)C [Compound 27c]	0.0069 ± 0.0012	> 1451.4	70.6 ± 0.5	82.5 ± 0.9	> 10	6.1 ± 0.7	–	0.126 ± 0.0005	48.4	–	–
Cc1c(-c2ccsc2)oc2c1C(=O)C(=O)c1c-2ccc2c1CCCC2(C)C [Compound 27d]	–	–	37.4 ± 2.8	14.5 ± 1.4	–	–	–	–	–	–	–
Cc1c(-c2ccnc3ccccc23)oc2c1C(=O)C(=O)c1c-2ccc2c1CCCC2(C)C [Compound 27e]	–	–	42.9 ± 3.7	15.1 ± 0.8	–	–	–	–	–	–	–
Cc1c(CN(C)C)oc2c1C(=O)C(=O)c1c-2ccc2c1CCCC2(C)C [Compound 29a]	0.0171 ± 0.0009	> 5813.9	96.6 ± 0.6	92.1 ± 2.4	> 100	5.6 ± 0.9	–	0.038 ± 0.0004	147.9	–	–
Cc1c(CN2CCCCC2)oc2c1C(=O)C(=O)c1c-2ccc2c1CCCC2(C)C [Compound 29b]	0.0655 ± 0.0037	> 1526.7	89.5	87.8 ± 0.8	> 100	6.5 ± 3.6	–	0.0426 ± 0.0044	151.9	–	–
Cc1c(CN2CCOCC2)oc2c1C(=O)C(=O)c1c-2ccc2c1CCCC2(C)C [Compound 29c]	–	–	6.7 ± 4.3	45.2 ± 0.7	–	–	–	–	–	–	–
Cc1c(CN2CCN(C)CC2)oc2c1C(=O)C(=O)c1c-2ccc2c1CCCC2(C)C [Compound 29d]	0.272 ± 0.0602	> 367.2	55.6 ± 1.8	67.3 ± 3.1	> 100	2.5 ± 0.6	–	0.183 ± 0.0325	13.6	–	–
CC1(C)CCCc2c1ccc1c2C(=O)C(=O)c2c(CNc3ccccc3)coc2-1 [Compound 31a]	0.0566 ± 0.0007	> 176.4	88.9 ± 3.5	32.6 ± 5.8	> 10	–	–	> 1	–	–	–
CC1(C)CCCc2c1ccc1c2C(=O)C(=O)c2c(CN3CCOCC3)coc2-1 [Compound 31b]	–	–	37 ± 3.2	16.9 ± 3.7	–	–	–	–	–	–	–
CC1(C)CCCc2c1ccc1c2C(=O)C(=O)c2c-1oc(Cl)c2CO [Compound 32]	0.328 ± 0.0202	> 30.5	70.1 ± 1.1	21.4 ± 1.8	> 10	–	–	> 1	–	–	–
Cc1c(Br)oc2c1C(=O)C(=O)c1c-2ccc2c1C=CCC2(C)C [Compound 33]	0.0393 ± 0.0076	> 2551.0	87.3 ± 1.3	70 ± 0.4	> 100	1.2 ± 0.5	–	0.21	5.8	–	–
CC1(C)C(=O)C=Cc2c1ccc1c2C(=O)C(=O)c2c(CO)coc2-1 [Compound 34]	0.0672 ± 0.0064	> 1488.1	90.8 ± 1.7	53.9 ± 1.6	> 100	1.9 ± 0.3	–	0.85 ± 0.2	2.2	–	–
CC(=O)OC1CCc2c(ccc3c2C(=O)C(=O)c2c(CO)coc2-3)C1(C)C (stereo not drawn) [Compound 35]	0.0219 ± 0.0079	> 4575.5	83.6 ± 1.9	48.9 ± 1.9	> 100	–	–	–	–	–	–
C1CCc2nnc(C34CC5CC(CC(C5)C3)C4)n2CC1 [MK544, reference compound]	–	–	–	–	–	–	–	–	–	0.4 ± 0.1	98.0 ± 0.7

Source: PMC9492458, “Development and structure–activity relationships of tanshinones as selective 11β-hydroxysteroid dehydrogenase 1 inhibitors” (Natural Products and Bioprospecting, 2022)
